Legend:
[1] = biological target: δ opioid receptors (Mus musculus, UniProt P32300); conditions: read-out: Agonist activity (% inhibition of contraction at 1 µM), MVD
[2] = biological target: delta opioid receptors (Mus musculus, UniProt P32300)
[3] = biological target: T1, μ opioid receptors (Cavia porcellus, UniProt A0ACM8Q262); set-up: species or system guinea pig
[4] = biological target: T1, μ opioid receptors; set-up: species or system guinea pig; conditions: read-out: Agonist activity (% inhibition of contraction at 1 µM), GPI/LMMP
[5] = biological target: opioid receptors; assay: Radioligand competition assay, [3H]diprenorphine, rat brain membranes; type: binding; conditions: data not shown

T1 sequence (A0ACM8Q262 1-400): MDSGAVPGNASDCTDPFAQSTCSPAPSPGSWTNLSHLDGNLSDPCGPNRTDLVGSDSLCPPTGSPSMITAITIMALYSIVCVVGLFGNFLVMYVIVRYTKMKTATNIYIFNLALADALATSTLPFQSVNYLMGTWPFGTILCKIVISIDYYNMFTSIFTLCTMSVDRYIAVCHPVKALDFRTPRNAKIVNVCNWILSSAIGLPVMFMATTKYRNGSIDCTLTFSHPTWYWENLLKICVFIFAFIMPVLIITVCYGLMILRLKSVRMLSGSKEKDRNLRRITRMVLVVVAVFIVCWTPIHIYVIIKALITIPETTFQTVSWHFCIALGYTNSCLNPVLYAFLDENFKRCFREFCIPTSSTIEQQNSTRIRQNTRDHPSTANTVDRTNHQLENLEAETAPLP
Sequence of δ opioid receptors (P32300 whole entry): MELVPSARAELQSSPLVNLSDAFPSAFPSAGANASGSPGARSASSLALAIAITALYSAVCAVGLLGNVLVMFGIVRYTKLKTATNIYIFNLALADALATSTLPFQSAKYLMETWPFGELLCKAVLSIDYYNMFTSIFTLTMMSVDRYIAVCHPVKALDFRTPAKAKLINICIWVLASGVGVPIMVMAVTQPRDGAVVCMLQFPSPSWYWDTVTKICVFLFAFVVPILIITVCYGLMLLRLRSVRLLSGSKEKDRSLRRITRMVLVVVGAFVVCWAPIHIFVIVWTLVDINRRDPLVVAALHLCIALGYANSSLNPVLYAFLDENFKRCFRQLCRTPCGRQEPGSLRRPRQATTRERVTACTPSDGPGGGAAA
Sequence of delta opioid receptors (P32300 whole entry): as above

Cc1c(CC(=O)O)c2ccccc2n1C1CCN(C)CC1 [Compound 9a, [2-methyl-1-(1-methyl-piperidin-4-yl)-1H-indol-3-yl]-acetic acid]
inhibition at 1 µM [1]: 17.9% | DPDPE Antagonism at 1 µM in the MVD [2]: none at 1 µM | PL-017 Antagonism at 1 µM in the GPI/LMMP [3]: none at 1 µM | inhibition at 1 µM [4]: 0.7%

Cc1c(CC(=O)O)c2ccccc2n1C1CCN(CCc2ccccc2)CC1 [Compound 9c, [2-methyl-1-(1-phenethyl-piperidin-4-yl)-1H-indol-3-yl]-acetic acid]
inhibition at 1 µM [1]: 19.5% | inhibition constants against binding of [3H]diprenorphine [5]: micromolar range | DPDPE Antagonism at 1 µM in the MVD [2]: none at 1 µM | PL-017 Antagonism at 1 µM in the GPI/LMMP [3]: none at 1 µM | inhibition at 1 µM [4]: 3.1%

COc1ccc2c(c1)c(CC(=O)O)c(C)n2C1CCN(C)CC1 [Compound 9d, [5-methoxy-2-methyl-1-(1-methyl-piperidin-4-yl)-1H-indol-3-yl]-acetic acid]
inhibition at 1 µM [1]: 2.8% | DPDPE Antagonism at 1 µM in the MVD [2]: none at 1 µM | PL-017 Antagonism at 1 µM in the GPI/LMMP [3]: none at 1 µM | inhibition at 1 µM [4]: 0%

COc1ccc2c(c1)c(CC(=O)O)c(C)n2C1CCN(CCc2ccccc2)CC1 [Compound 9f, [5-methoxy-2-methyl-1-(1-phenethyl-piperidin-4-yl)-1H-indol-3-yl]-acetic acid]
inhibition at 1 µM [1]: 0% | inhibition constants against binding of [3H]diprenorphine [5]: micromolar range | DPDPE Antagonism at 1 µM in the MVD [2]: none at 1 µM | PL-017 Antagonism at 1 µM in the GPI/LMMP [3]: none at 1 µM | inhibition at 1 µM [4]: 6%
